The values below come from patent US11572590B2, “Methods for evaluating tumor cell spheroids using 3D microfluidic cell culture device” (Dana-Farber Cancer Institute, Inc., priority 2017, dated 2023).

Where two headings read alike, the source gives them in different places.

What all share (assay): SelectScreen Kinase Profiling, single point inhibition and IC50 for off-target kinases
Common to all, as to assay type: biochemical

Test [1] concerns the target off-target kinases (Homo sapiens, UniProt Q05397). The conditions noted are these: PTK2 (FAK), ZLYTE, ATP Km app.
Test [2] addresses T1, off-target kinases (Homo sapiens, UniProt Q13976).
T1 sequence (Q13976 1-671): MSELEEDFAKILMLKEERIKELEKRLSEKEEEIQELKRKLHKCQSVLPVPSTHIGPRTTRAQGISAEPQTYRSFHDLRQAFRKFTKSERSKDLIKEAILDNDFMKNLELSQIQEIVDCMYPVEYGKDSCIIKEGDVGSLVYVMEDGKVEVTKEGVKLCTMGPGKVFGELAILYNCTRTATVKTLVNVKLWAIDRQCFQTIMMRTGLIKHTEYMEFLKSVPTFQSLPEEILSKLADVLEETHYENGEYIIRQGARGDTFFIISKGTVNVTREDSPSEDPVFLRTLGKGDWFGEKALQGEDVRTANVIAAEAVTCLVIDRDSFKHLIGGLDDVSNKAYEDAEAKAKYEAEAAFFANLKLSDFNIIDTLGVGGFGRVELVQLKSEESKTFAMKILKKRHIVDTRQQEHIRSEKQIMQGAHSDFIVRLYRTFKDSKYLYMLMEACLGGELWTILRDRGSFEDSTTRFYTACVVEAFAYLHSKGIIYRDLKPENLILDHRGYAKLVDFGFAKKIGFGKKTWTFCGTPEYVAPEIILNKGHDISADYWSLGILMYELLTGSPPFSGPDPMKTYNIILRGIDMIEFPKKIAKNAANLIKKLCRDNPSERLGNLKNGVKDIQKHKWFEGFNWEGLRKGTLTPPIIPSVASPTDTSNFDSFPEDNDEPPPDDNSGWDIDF
The conditions noted are these: PRKG1, ZLYTE, ATP Km app.

Test [3] concerns the target off-target kinases (Homo sapiens, UniProt P10721, T670E). To be noted: KIT T670E (mutant), LanthaScreen Binding.
In test [4] the target is T2, off-target kinases (Homo sapiens, UniProt O14965).
T2 sequence (O14965 1-403): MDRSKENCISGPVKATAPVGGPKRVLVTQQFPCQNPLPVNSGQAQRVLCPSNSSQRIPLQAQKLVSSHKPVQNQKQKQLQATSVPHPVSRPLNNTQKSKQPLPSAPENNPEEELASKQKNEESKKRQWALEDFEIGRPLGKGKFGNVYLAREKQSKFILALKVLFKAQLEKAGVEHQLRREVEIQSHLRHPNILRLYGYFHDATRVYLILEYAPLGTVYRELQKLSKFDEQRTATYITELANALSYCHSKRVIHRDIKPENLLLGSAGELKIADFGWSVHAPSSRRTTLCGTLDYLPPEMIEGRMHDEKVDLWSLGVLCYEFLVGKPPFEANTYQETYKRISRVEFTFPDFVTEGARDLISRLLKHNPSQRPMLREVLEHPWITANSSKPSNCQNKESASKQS
To be noted: AURKA (Aurora A), ATP Km app, ZLYTE.

The target in test [5] is off-target kinases (Homo sapiens, UniProt Q5S007, R1441C). To be noted: LRRK2 R1441C, ATP Km app, Adapta.
Chain of off-target kinases (Homo sapiens, UniProt Q5S007, R1441C) (Q5S007 whole entry R1441C): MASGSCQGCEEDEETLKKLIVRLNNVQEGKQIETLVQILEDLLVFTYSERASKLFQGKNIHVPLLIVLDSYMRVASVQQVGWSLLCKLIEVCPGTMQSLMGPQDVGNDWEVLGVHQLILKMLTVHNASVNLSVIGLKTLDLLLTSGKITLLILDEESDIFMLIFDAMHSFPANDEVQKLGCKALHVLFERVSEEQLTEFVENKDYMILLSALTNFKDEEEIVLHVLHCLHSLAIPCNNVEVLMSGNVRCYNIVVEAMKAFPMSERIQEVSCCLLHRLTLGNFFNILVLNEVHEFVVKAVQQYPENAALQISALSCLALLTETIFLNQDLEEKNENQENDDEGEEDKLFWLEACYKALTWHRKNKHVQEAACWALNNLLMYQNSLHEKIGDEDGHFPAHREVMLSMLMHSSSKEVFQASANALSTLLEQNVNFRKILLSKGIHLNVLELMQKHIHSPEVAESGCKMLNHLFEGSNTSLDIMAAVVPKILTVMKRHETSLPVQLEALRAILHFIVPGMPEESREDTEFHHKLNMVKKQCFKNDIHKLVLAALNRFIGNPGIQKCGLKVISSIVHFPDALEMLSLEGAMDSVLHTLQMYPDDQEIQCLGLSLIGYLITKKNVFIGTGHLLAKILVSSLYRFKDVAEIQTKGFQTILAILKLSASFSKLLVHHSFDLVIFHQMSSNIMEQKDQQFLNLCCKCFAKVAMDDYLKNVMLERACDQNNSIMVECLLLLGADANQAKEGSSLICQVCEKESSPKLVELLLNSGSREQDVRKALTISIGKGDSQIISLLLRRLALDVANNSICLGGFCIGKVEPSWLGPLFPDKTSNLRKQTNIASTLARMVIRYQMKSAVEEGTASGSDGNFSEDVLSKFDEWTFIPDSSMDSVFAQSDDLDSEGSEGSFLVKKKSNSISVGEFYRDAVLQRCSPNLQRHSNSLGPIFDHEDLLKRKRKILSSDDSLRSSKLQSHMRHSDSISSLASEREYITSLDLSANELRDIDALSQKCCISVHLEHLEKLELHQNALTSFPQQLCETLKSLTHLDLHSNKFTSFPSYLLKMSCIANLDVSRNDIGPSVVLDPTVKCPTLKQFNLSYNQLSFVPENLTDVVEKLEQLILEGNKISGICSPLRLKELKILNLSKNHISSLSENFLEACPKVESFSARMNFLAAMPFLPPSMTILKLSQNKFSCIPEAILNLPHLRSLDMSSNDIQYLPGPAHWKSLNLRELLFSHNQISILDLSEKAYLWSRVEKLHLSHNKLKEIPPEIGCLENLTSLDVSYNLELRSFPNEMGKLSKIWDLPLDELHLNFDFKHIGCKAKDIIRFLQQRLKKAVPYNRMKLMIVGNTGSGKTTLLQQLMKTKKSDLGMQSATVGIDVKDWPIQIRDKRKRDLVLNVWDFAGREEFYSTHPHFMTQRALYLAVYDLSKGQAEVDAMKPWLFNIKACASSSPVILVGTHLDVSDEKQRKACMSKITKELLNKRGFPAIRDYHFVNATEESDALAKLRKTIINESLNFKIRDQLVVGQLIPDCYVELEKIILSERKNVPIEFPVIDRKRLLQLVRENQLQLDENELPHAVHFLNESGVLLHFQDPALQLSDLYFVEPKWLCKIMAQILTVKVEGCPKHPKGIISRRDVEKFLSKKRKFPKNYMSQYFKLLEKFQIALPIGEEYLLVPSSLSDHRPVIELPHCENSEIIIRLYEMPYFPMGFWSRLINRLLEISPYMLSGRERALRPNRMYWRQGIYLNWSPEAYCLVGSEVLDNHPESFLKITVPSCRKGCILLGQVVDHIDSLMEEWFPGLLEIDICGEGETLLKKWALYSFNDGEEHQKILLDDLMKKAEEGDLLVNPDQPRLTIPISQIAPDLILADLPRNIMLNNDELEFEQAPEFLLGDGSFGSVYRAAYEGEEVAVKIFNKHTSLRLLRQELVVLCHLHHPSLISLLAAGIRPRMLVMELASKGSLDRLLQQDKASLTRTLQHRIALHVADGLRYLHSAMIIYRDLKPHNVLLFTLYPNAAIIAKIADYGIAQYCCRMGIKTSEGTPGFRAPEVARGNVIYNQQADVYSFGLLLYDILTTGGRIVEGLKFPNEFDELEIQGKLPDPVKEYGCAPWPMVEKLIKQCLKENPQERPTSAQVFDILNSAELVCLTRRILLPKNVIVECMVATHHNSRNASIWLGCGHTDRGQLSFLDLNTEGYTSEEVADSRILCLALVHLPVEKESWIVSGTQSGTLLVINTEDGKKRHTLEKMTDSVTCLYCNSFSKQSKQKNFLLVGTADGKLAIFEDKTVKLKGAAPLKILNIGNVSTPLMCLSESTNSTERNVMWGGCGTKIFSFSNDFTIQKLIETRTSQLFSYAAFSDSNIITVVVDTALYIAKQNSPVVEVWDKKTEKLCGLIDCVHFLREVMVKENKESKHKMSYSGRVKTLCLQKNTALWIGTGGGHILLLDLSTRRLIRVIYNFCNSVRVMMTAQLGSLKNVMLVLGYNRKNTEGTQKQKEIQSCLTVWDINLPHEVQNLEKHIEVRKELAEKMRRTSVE

Chain of off-target kinases (Homo sapiens, UniProt Q05397) (Q05397 whole entry): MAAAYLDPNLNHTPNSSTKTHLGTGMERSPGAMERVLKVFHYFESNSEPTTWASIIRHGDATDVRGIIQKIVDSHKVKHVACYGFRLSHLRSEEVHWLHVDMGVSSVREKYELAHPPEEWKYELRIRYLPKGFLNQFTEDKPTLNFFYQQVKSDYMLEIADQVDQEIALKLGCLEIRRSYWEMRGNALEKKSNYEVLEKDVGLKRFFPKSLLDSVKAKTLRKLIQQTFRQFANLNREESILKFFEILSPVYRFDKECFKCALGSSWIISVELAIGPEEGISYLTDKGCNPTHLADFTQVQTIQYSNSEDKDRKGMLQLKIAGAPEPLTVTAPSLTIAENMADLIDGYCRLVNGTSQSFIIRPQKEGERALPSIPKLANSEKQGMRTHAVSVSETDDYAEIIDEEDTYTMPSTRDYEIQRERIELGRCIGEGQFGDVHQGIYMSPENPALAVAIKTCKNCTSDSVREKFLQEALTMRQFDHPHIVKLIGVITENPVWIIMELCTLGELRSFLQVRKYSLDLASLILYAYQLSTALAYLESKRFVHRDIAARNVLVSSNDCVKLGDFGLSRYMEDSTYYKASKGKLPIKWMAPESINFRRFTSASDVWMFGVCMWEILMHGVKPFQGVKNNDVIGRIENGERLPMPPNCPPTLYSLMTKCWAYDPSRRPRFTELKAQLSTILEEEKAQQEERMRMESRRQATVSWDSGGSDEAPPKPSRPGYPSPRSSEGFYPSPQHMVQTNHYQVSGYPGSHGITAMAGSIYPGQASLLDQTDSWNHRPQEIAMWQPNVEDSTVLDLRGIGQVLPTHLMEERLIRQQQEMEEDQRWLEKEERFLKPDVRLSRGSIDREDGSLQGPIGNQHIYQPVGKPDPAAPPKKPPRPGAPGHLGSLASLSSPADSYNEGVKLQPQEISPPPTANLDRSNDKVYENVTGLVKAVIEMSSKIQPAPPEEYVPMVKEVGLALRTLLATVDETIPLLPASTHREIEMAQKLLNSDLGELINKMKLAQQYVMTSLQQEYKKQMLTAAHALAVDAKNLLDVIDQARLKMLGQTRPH
Chain of off-target kinases (Homo sapiens, UniProt P10721, T670E) (P10721 26-976 T670E): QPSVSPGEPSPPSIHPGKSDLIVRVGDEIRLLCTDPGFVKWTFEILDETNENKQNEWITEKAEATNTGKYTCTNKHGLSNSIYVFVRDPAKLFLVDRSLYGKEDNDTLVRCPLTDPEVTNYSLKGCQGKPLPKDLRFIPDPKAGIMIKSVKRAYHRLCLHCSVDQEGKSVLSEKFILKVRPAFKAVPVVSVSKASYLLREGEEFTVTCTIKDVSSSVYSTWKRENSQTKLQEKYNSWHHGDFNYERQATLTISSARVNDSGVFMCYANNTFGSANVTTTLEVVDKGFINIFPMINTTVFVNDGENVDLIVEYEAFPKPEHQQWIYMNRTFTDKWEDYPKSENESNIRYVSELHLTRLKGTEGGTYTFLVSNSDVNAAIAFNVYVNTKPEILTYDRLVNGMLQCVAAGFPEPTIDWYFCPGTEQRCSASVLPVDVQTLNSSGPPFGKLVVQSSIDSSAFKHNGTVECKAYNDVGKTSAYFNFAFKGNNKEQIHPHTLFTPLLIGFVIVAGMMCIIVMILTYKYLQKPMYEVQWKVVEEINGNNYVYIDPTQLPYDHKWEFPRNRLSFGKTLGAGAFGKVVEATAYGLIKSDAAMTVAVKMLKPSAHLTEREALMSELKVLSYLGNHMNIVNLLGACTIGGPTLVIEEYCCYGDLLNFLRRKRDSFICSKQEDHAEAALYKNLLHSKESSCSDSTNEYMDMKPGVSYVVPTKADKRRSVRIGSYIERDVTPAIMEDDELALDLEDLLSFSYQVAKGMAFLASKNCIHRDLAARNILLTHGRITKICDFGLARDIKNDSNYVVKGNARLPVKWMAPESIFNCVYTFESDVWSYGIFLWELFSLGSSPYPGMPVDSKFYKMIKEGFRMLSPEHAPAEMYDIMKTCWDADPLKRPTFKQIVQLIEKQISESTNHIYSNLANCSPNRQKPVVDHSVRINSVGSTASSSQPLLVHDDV

Consider `N#Cc1cc(-c2ncnc(Nc3ccc(N4CCN(C5COC5)CC4)cc3)n2)ccc1OC1CCOCC1` [Compound 1, 5-(4-((4-(4-(oxetan-3-yl)piperazin-1-yl)phenyl)amino)-1,3,5-triazin-2-yl)-2-((tetrahydro-2H-pyran-4-yl)oxy)benzonitrile], for which the inhibition on off-target kinases [1] (read-out: % Inhibition 1) amounted to 0%; at off-target kinases [1] (read-out: % Inhibition 2), 2%; on off-target kinases [1] (read-out: % Inhibition Avg), 1%; at off-target kinases [2] (read-out: % Inhibition 1), 2%; on off-target kinases [2] (read-out: % Inhibition 2) it was 5%; at off-target kinases [2] (read-out: % Inhibition Avg), 3%. The inhibition worked out at 2% on off-target kinases [3] (read-out: % Inhibition 1); 2% on off-target kinases [3] (read-out: % Inhibition 2); 2% on off-target kinases [3] (read-out: % Inhibition Avg); 91% at off-target kinases [4] (read-out: % Inhibition 1); 86% on off-target kinases [4] (read-out: % Inhibition 2); 89% on off-target kinases [4] (read-out: % Inhibition Avg). Moreover, the values for the inhibition at off-target kinases [5] (read-out: % Inhibition 1), on off-target kinases [5] (read-out: % Inhibition 2) and at off-target kinases [5] (read-out: % Inhibition Avg) were 99%, 95% and 97%, respectively.
